# Where a name gives a salt, the structure may show the parent alone.
# Molecular target: T1, human GPR52 (Homo sapiens, UniProt Q9Y2T5)
# T1 construct: expressed in transfected cells; host or cells: CHO(dhfr-) cells
# Assay: Increase of intracellular cAMP concentration in human GPR52-expressing CHO cell (AlphaScreen cAMP assay)
# Assay type: cell-based
# Conditions: 0.5 h; test compound 10 µm, 37°C, 30 min, human GPR52-expressing CHO(dhfr-) cells; 100% = cAMP with 1 µM N-(2-hydroxyethyl)-3-[2-[3-(trifluoromethyl)benzyl]-1-benzofuran-4-yl]benzamide, 0% = DMSO; read-out: GPR52 agonist activity (%)
# Protocol: Increase of intracellular cAMP concentration in human GPR52-expressing CHO cell
# Using OptiPlate-384 (PerkinElmer Inc.), 1×10^4 human GPR52-expressing CHO(dhfr-) cells were incubated together with a test compound ([…]) in an assay buffer (30 µL, HBSS (containing Ca^2+ and Mg^2+), 0.5% BSA, 100 µM IBMX, 100 µM Ro20-1724, 5 mM HEPES (pH 7.55)) at 37°C for 30 min. Thereafter, according to the protocol of AlphaScreen cAMP Assay Kit (PerkinElmer Inc.), the intracellular cAMP concentration was measured by EnVision (PerkinElmer Inc.). The GPR52 agonist activity was calculated, assuming the intracellular cAMP concentration in the presence of 1 µM N-(2-hydroxyethyl)-3-[2-[3-(trifluoromethyl)benzyl]-1-benzofuran-4-yl]benzamide to be 100% and assuming the intracellular cAMP concentration when DMSO was added instead of the test compound to be 0%.
# T1 sequence (Q9Y2T5 whole entry): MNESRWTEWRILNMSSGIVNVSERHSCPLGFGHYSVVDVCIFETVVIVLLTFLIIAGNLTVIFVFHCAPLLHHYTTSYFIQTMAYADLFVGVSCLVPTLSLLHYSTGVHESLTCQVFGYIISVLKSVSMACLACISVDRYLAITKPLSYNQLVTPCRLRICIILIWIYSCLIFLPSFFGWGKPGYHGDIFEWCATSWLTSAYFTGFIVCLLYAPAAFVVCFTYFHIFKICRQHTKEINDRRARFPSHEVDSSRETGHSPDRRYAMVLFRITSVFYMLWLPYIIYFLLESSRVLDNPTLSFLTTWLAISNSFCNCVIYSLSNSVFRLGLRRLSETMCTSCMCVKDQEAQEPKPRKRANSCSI
row,Compound,activation at 10 µM
1,"COCCNC(=O)[C@@H]1C[C@H]1C(=O)Nc1sc(Cc2cc(F)cc(Cl)c2)nc1C (relative stereo) [Example 189, trans-N-[2-(3-chloro-5-fluorobenzyl)-4-methyl-1,3-thiazol-5-yl]-N'-(2-methoxyethyl)cyclopropane-1,2-dicarboxamide]",78%
2,"COC(=O)[C@@H]1C[C@@H]1C(=O)Nc1sc(Cc2cc(F)cc(Cl)c2)nc1C (relative stereo) [Example 190, methyl cis-2-{[2-(3-chloro-5-fluorobenzyl)-4-methyl-1,3-thiazol-5-yl]carbamoyl}cyclopropanecarboxylate]",82%
3,"Cn1nccc1C(=O)Nc1cnc(Cc2cccc(C(F)(F)F)c2)s1 [Example 1, 1-methyl-N-{2-[3-(trifluoromethyl)benzyl]-1,3-thiazol-5-yl}-1H-pyrazole-5-carboxamide]",92%
4,"CCN1CC(C(=O)Nc2sc(Cc3cccc(C(F)(F)F)c3)nc2C)CC1=O (stereo not shown) [Example 4, 1-ethyl-N-(4-methyl-2-[3-(trifluoromethyl)benzyl]-1,3-thiazol-5-yl}-5-oxopyrrolidine-3-carboxamide]",72%
5,"Cn1nccc1C(=O)Nc1sc(Cc2cccc(C(F)(F)F)c2)nc1CO [Example 6, N-{4-(hydroxymethyl)-2-[3-(trifluoromethyl)benzyl]-1,3-thiazol-5-yl}-1-methyl-1H-pyrazole-5-carboxamide]",83%
6,"COCc1nc(Cc2cccc(C(F)(F)F)c2)sc1NC(=O)c1ccnn1C [Example 8, N-{4-(methoxymethyl)-2-[3-(trifluoromethyl)benzyl]-1,3-thiazol-5-yl}-1-methyl-1H-pyrazole-5-carboxamide]",78%
7,"CCc1nc(Cc2cccc(C(F)(F)F)c2)sc1NC(=O)c1ccnn1C [Example 11, N-{4-ethyl-2-[3-(trifluoromethyl)benzyl]-1,3-thiazol-5-yl}-1-methyl-1H-pyrazole-5-carboxamide]",92%
8,"C=Cc1nc(Cc2cccc(C(F)(F)F)c2)sc1NC(=O)c1ccnn1C [Example 12, N-{4-ethenyl-2-[3-(trifluorornethyl)benzyl]-1,3-thiazol-5-yl}-1-methyl-1H-pyrazole-5-carboxamide]",75%
9,"CCCc1nc(Cc2cccc(C(F)(F)F)c2)sc1NC(=O)c1ccnn1C [Example 14, 1-methyl-N-{4-propyl-2-[3-(trifluoromethyl)benzyl]-1,3-thiazol-5-yl}-1H-pyrazole-5-carboxamide]",80%
10,"CCCCc1nc(Cc2cccc(C(F)(F)F)c2)sc1NC(=O)c1ccnn1C [Example 16, N-{4-butyl-2-[3-(trifluoromethyl)benzyl]-1,3-thiazol-5-yl}-1-methyl-1H-pyrazole-5-carboxamide]",72%
11,"Cn1nccc1C(=O)Nc1sc(Cc2cccc(C(F)(F)F)c2)nc1C(F)(F)F [Example 17, 1-methyl-N-{4-(trifluoromethyl)-2-[3-(trifluoromethyl)benzyl]-1,3-thiazol-5-yl}-1H-pyrazole-5-carboxamide]",94%
12,"CC(=O)N1CCC(C(=O)Nc2sc(Cc3cccc(C(F)(F)F)c3)nc2C)C1 (stereo not shown) [Example 21, 1-acetyl-N-{4-methyl-2-[3-(trifluoromethyl)benzyl]-1,3-thiazol-5-yl}pyrrolidine-3-carboxamide]",69%
13,"Cc1nc(Cc2cccc(C(F)(F)F)c2)sc1NC(=O)C1CCCNC1 (stereo not shown) [Example 29, N-{4-methyl-2-[3-(trifluoromethyl)benzyl]-1,3-thiazol-5-yl}piperidine-3-carboxamide hydrochloride]",71%
14,"Cc1nc(Cc2cccc(C(F)(F)F)c2)sc1NC(=O)C1CCNCC1 [Example 33, N-{4-methyl-2-[3-(trifluoromethyl)benzyl]-1,3-thiazol-5-yl}piperidine-4-carboxamide hydrochloride]",70%
15,"Cc1nc(Cc2cccc(C(F)(F)F)c2)sc1NC(=O)C1(C#N)CC1 [Example 39, 1-cyano-N-{4-methyl-2-[3-(trifluoromethyl)benzyl]-1,3-thiazol-5-yl}cyclopropanecarboxamide]",79%
16,"Cc1nc(Cc2cccc(C(F)(F)F)c2)sc1NC(=O)c1ccoc1C [Example 40, 2-methyl-N-{4-methyl-2-[3-(trifluoromethyl)-benzyl]-1,3-thiazol-5-yl}furan-3-carboxamide]",80%
17,"Cc1nc(Cc2cccc(C(F)(F)F)c2)sc1NC(=O)c1nccn1C [Example 41, 1-methyl-N-{4-methyl-2-[3-(trifluoromethyl)-benzyl]-1,3-thiazol-5-yl}-1H-imidazole-2-carboxamide]",72%
18,"Cc1nc(Cc2cccc(C(F)(F)F)c2)sc1NC(=O)c1cncn1C [Example 43, 1-methyl-N-{4-methyl-2-[3-(trifluoromethyl)-benzyl]-1,3-thiazol-5-yl}-1H-imidazole-5-carboxamide]",73%
19,"Cc1nc(Cc2cccc(C(F)(F)F)c2)sc1NC(=O)c1c(C)nn(C)c1C [Example 47, 1,3,5-trimethyl-N-{4-methyl-2-[3-(trifluoromethyl)-benzyl]-1,3-thiazol-5-yl}-1H-pyrazole-4-carboxamide]",82%
20,"Cc1nc(Cc2cccc(C(F)(F)F)c2)sc1NC(=O)c1c(C)nn(C)c1Cl [Example 51, 5-chloro-1,3-dimethyl-N-{4-methyl-2-[3-(trifluoromethyl)-benzyl]-1,3-thiazol-5-yl}-1H-pyrazole-4-carboxamide]",77%
21,"CSc1ncccc1C(=O)Nc1sc(Cc2cccc(C(F)(F)F)c2)nc1C [Example 76, 2-(methylsulfanyl)-N-{4-methyl-2-[3-(trifluoromethyl)-benzyl]-1,3-thiazol-5-yl}pyridine-3-carboxamide]",86%
22,"Cc1nc(Cc2cccc(C(F)(F)F)c2)sc1NC(=O)c1ccnn1C [Example 110, 1-methyl-N-{4-methyl-2-[3-(trifluoromethyl)-benzyl]-1,3-thiazol-5-yl}-1H-pyrazole-5-carboxamide]",82%
23,"Cc1nc(Cc2cccc(C(F)(F)F)c2)sc1NC(=O)c1ccc(CCN2CCCC2)nc1 [Example 122, N-{4-methyl-2-[3-(trifluoromethyl)-benzyl]-1,3-thiazol-5-yl}-6-(2-pyrrolidin-1-ylethyl)pyridine-3-carboxamide]",96%
24,"Cc1cc(C(=O)Nc2sc(Cc3cc(F)cc(Cl)c3)nc2C)n(C)n1 [Example 147, N-[2-(3-chloro-5-fluorobenzyl)-4-methyl-1,3-thiazol-5-yl]-1,3-dimethyl-1H-pyrazole-5-carboxamide]",78%
25,"Cc1nc(Cc2cc(F)cc(Cl)c2)sc1NC(=O)c1cc(Cl)nn1C [Example 149, 3-chloro-N-[2-(3-chloro-5-fluorobenzyl)-4-methyl-1,3-thiazol-5-yl]-1-methyl-1H-pyrazole-5-carboxamide]",75%
26,"Cc1nc(Cc2cc(F)cc(Cl)c2)sc1NC(=O)c1ccnn1C(F)F [Example 150, N-[2-(3-chloro-5-fluorobenzyl)-4-methyl-1,3-thiazol-5-yl]-1-(difluoromethyl)-1H-pyrazole-5-carboxamide]",69%
27,"Cc1nc(Cc2cc(F)cc(Cl)c2)sc1NC(=O)c1ccnn1C(C)C [Example 151, N-[2-(3-chloro-5-fluorobenzyl)-4-methyl-1,3-thiazol-5-yl]-1-(1-methylethyl)-1H-pyrazole-5-carboxamide]",69%
28,"Cc1nc(Cc2ccc(F)c(Cl)c2)sc1NC(=O)c1ccnn1C [Example 156, N-[2-(3-chloro-4-fluorobenzyl)-4-methyl-1,3-thiazol-5-yl]-1-methyl-1H-pyrazole-5-carboxamide]",76%
29,"Cc1nc(Cc2cccc(Cl)c2)sc1NC(=O)c1ccnn1C [Example 157, N-[2-(3-chlorobenzyl)-4-methyl-1,3-thiazol-5-yl]-1-methyl-1H-pyrazole-5-carboxamide]",77%

# Same assay, conditions: test compound 10 µm, 37°C, 30 min, human GPR52-expressing CHO(dhfr-) cells; 100% = cAMP with 1 µM N-(2-hydroxyethyl)-3-[2-[3-(trifluoromethyl)benzyl]-1-benzofuran-4-yl]benzamide, 0% = DMSO
row,Compound,GPR52 agonist activity (%)
1,"Cc1nc(Cc2cccc(C(F)(F)F)c2)sc1NC(=O)C1CCNC1 (stereo not shown) [Example 20, N-{4-methyl-2-[3-(trifluoromethyl)benzyl]-1,3-thiazol-5-yl}pyrrolidine-3-carboxamide hydrochloride]",74%
2,"CCNC(=O)N1CCC(C(=O)Nc2sc(Cc3cccc(C(F)(F)F)c3)nc2C)C1 (stereo not shown) [Example 23, N1-ethyl-N3-{4-methyl-2-[3-(trifluoromethyl)benzyl]-1,3-thiazol-5-yl}pyrrolidine-1,3-dicarboxamide]",80%
3,"Cc1nocc1C(=O)Nc1sc(Cc2cccc(C(F)(F)F)c2)nc1C [Example 24, 3-methyl-N-{4-methyl-2-[3-(trifluoromethyl)benzyl]-1,3-thiazol-5-yl}isoxazole-4-carboxamide]",93%
4,"Cc1cc(C(=O)Nc2sc(Cc3cccc(C(F)(F)F)c3)nc2C)c(C)o1 [Example 26, 2,5-dimethyl-N-{4-methyl-2-[3-(trifluoromethyl)benzyl]-1,3-thiazol-5-yl}furan-3-carboxamide]",78%
5,"CCS(=O)(=O)N1CCC(C(=O)Nc2sc(Cc3cccc(C(F)(F)F)c3)nc2C)C1 (stereo not shown) [Example 30, 1-(ethylsulfonyl)-N-(4-methyl-2-[3-(trifluoromethyl)benzyl]-1,3-thiazol-5-yl}pyrrolidine-3-carboxamide]",81%

# Reference: EP2530078A1, “THIAZOLE DERIVATIVE” (Takeda Pharmaceutical Company Limited, priority 2010, dated 2011)
